Test results as given in patent publication US10233426B2, “Method for inducing cardiac differentiation of pluripotent stem cell with low-molecular compounds” (KYOTO UNIVERSITY, priority 2014, dated 2019).

Assays:
[1] = system: mesoderm-related genes (MSGN1, T, MIXL1 and NODAL); assay: Quantitative PCR for expression of mesoderm-related genes under PFCD condition; type: cell-based, human; settings: IMR90-1; 1 μM XAV939, 0.3 μM A419259, 10 μM AG1478, 3 μM KY03-I, day 3 to day 4; mRNA on day 4; FIG. 3f
Procedure: A human iPS cell line (IMR90-1 cultured on MEF feeder) was cultured in PFCD culture media, to which 2 μM CHIR99021 or 0.3 μM PMA or the both (CHIR99021+PMA) were added for early phase of cardiac differentiation (day 0 to day 2). On day 2, mRNA was extracted the cultured cells and analyzed by quantitative PCR for the expression of mesoderm-related genes (MSGN1, T, MIXL1 and NODAL) (FIG. 3e). As a control, cells were cultured similarly, but with DMSO in place of the test compounds. The gene expression level in the control cells was assigned to one. […] In contrast, the expression of the genes was reduced when PMA was added to the culture. However, the reduction in gene expression by PMA was counteracted and reversed when CHIR99021 was added in combination with PMA (in accordance with the optimal PFCD condition).
A human iPS cell line (IMR90-1 from culture on MEF feeder) was cultured in PFCD media with one of 1 μM XAV939, 0.3 μM A419259, 10 μM AG1478 or 3 μM KY03-I, or all of them (XAV939+A419259+AG1478+KY03-I) in late phase of cardiac differentiation (day 3 to day 4). On day 4, mRNA was extracted from the cultured cells and analyzed by quantitative PCR for the expression of mesoderm-related genes (MSGN1, T, MIXL1 and NODAL) (FIG. 3f).

[2] = Induction of cardiac differentiation by a procedure as described in the Examples in WO 2012/026491; type: cell-based
[3] = system: monkey ES cell line transfected with an αMHC promoter-driven GFP gene; assay: Chemical screening: GFP fluorometry for cardiac differentiation of monkey ES cells; type: cell-based, cynomolgus monkey; settings: 10 to 30 μM in late phase, alone or in combination with KY02111 (10 μM in late phase); FIG. 1d
[4] = system: monkey ES cell line transfected with an αMHC promoter-driven GFP gene; assay: as above; type: cell-based, cynomolgus monkey; settings: for intensity of GFP fluorescence relative to control culture (KY02111 only, assigned to one): GFP fluorometry day 9; for cardiac differentiation (screening conclusion): under appropriate conditions, Table 1
Procedure: Pluripotent stem cells were cultured in culture media to which the test compounds were added in different concentrations (0.3 μM, 1 μM, 3 μM and 10 μM) in early phase and late phase of differentiation of the cells. Cells from the culture were subjected to GFP fluorometry in accordance with the cardiac differentiation protocol shown in FIG. 1a. Besides the test compounds, 10 μM KY02111 was included in the culture media for the late phase differentiation. The intensity of GFP fluorescence determined in the cells from the control culture, which was cultured with no test compound other than KY02111, was assigned to one.
The scheme of chemical screening is illustrated in FIG. 1a. Compounds were screened for the ability of increasing GFP fluorescence compared with the control (KY02111 alone) using a monkey ES cell line transfected with an αMHC promoter-driven GFP gene (Minami et al., Cell Reports 2, 1448-1460, 2012, which is incorporated herein by reference). The ES cell line was derived from a monkey ES cell line (cynomolgus monkey CMK6.4) by transfecting the cells with a vector which expresses green fluorescent protein (GFP) under control by a promoter of α-MHC gene (a marker of cardiac differentiation). The cells were plated at 4.0×10^5 cells per well in 6 well plates (Asahi Glass/5816-006: Ezview culture plates) and cultured for nine days in an IMDM-based medium for cardiac differentiation (200 ml IMDM medium (Sigma 13390), with 50 ml calf serum (GIBCO 10099-141), 2.5 ml MEM non-essential amino acid solution (Sigma M7145), 2.5 ml penicillin-streptomycin ([…]), 2.5 ml 200 mM L-glutamine, 2 ul 2-mercaptoethanol (Sigma M7522), and 255 ul 5N NaOH). Each test compound was added to the medium at different concentrations in the early phase (day 0 to day 3) and the late phase (day 4 to day 7) of cardiac differentiation. Cells obtained from the culture on day 9 were subjected to GFP fluorometry with a Metamorph imaging system. […]

[5] = test compound 0.3 μM in Early phase (day 0 to day 3), 10 μM KY02111 in late phase
[6] = test compound 0.3 μM in Late phase (day 4 to day 7) with 10 μM KY02111
[7] = test compound 1 μM in Early phase (day 0 to day 3), 10 μM KY02111 in late phase
[8] = test compound 1 μM in Late phase (day 4 to day 7) with 10 μM KY02111
[9] = test compound 3 μM in Early phase (day 0 to day 3), 10 μM KY02111 in late phase
[10] = test compound 3 μM in Late phase (day 4 to day 7) with 10 μM KY02111
[11] = test compound 10 μM in Early phase (day 0 to day 3), 10 μM KY02111 in late phase
[12] = test compound 10 μM in Late phase (day 4 to day 7) with 10 μM KY02111

SMILES	expression level of NODAL [1]	expression of MSGN1, T and MIXL1 [1]	effect of inducing cardiac differentiation [2]	increase of cardiac differentiation [3]	intensity of GFP fluorescence relative to control culture (KY02111 only, assigned to one) [4, 5]	intensity of GFP fluorescence relative to control culture (KY02111 only, assigned to one) [4, 6]	intensity of GFP fluorescence relative to control culture (KY02111 only, assigned to one) [4, 7]	intensity of GFP fluorescence relative to control culture (KY02111 only, assigned to one) [4, 8]	intensity of GFP fluorescence relative to control culture (KY02111 only, assigned to one) [4, 9]	intensity of GFP fluorescence relative to control culture (KY02111 only, assigned to one) [4, 10]	intensity of GFP fluorescence relative to control culture (KY02111 only, assigned to one) [4, 11]	intensity of GFP fluorescence relative to control culture (KY02111 only, assigned to one) [4, 12]	cardiac differentiation (screening conclusion) [4]	increase of cardiac differentiation ([4]; 1 to 3 μM in late phase, alone or in combination with KY02111 (10 μM in late phase), FIG. 1e)
COc1ccc(CCCC(=O)Nc2nc3ccc(I)cc3s2)cc1OC [KY03-I, 2-(4-(3,4-dimethoxyphenyl)propanamido)-6-iodobenzothiazole]	not significantly different	reduced	found to have the effect of inducing cardiac differentiation	–	–	–	–	–	–	–	–	–	–	–
COc1cc2ncnc(Nc3ccc(F)c(Cl)c3)c2cc1OCCCN1CCOCC1 [gefitinib]	–	–	–	two- to three-fold	–	–	–	–	–	–	–	–	–	–
COc1cc2ncnc(Nc3cccc(Cl)c3)c2cc1OC [AG1478]	not significantly different	reduced	–	two- to three-fold	0.97	1.24	0.89	1.53	0.35	2.03	0.05	3.24	promoted	–
COc1ccc(CCC(=O)Nc2nc3ccc(I)cc3s2)cc1OC [KY02-I, 2-(3-(3,4-dimethoxyphenyl)propanamido)-6-iodobenzothiazole]	–	–	found to have the effect of inducing cardiac differentiation	–	–	–	–	–	–	–	–	–	–	–
CN1CCN(C2CCC(n3cc(-c4ccc(Oc5ccccc5)cc4)c4c(N)ncnc43)CC2)CC1 (stereo not shown) [A419259]	not significantly different	reduced	–	–	0.15	1.7	0.01	5.56	0	4.8	0	0.32	promoted	two- to five-fold
Oc1nc(-c2ccc(C(F)(F)F)cc2)nc2c1CSCC2 [XAV939]	not significantly different	reduced	–	–	–	–	–	–	–	–	–	–	–	–
COc1ccc(-c2ccc3c(N4CCOCC4)nc(N4C[C@@H](C)O[C@@H](C)C4)nc3n2)cc1CO [K00063794]	–	–	–	–	0.18	0.95	0.01	0.85	0	0.21	0	0	–	–
Cc1ccc(-n2nc(C(C)(C)C)cc2NC(=O)Nc2ccc(OCCN3CCOCC3)c3ccccc23)cc1 [BIRB796]	–	–	–	–	1.2	1.05	0.9	0.81	0.95	0.55	0.08	0.29	–	–
CNC(=O)c1ccccc1Sc1ccc2c(/C=C/c3ccccn3)n[nH]c2c1 [Axitinib]	–	–	–	–	0.64	0.95	0.02	0.25	0	0.05	0	0	–	–
CCCOc1ccc(CCC(=O)Nc2nc3ccc(I)cc3s2)cc1OC [SO2077, 2-(3-(3-methoxy-4-propoxyphenyl)propanamido)-6-iodobenzothiazole]	–	–	found to have the effect of inducing cardiac differentiation	–	–	–	–	–	–	–	–	–	–	–
COc1ccc(CC(=O)Nc2nc3ccc(I)cc3s2)cc1OC [KY01-I, 2-(2-(3,4-dimethoxyphenyl)acetamido)-6-iodobenzothiazole]	–	–	found to have the effect of inducing cardiac differentiation	–	–	–	–	–	–	–	–	–	–	–
N#C/C(=C/c1ccc(O)c(O)c1)C(=O)NCc1ccccc1 [AG490]	–	–	–	–	1.5	0.92	0.59	1	0.79	1.1	0.72	1.33	–	–
OCCn1cc(-c2cnc3nnn(Cc4ccc5ncccc5c4)c3n2)cn1 [PF042I7903]	–	–	–	–	1.02	1.09	0.99	1.3	0.91	0.82	0.62	0.78	–	–
